The assay addresses Monoacylglycerol Lipase (MAGL) (Homo sapiens (Human), UniProt Q99685). Nature of the assay: MAGL inhibition potency (IC50) assay with 4NPA substrate. Format: biochemical. The source says:
The potency of certain compounds for inhibiting MAGL were obtained using the following assays. The monoacylglycerol lipase inhibitor screening assay kit from Cayman Chemical was used to measure the MAGL potency for the compounds in Table 6 and Table 7. Cayman's Monoacylglycerol Lipase Inhibitor Screening Assay provides a method for screening human MAGL inhibitors. MAGL hydrolyzes 4-nitrophenylacetate resulting in a yellow product, 4-nitrophenol, with an absorbance of 405-412 nm. MAGL Inhibition was measured by the following assay. Monoacylglycerol Lipase (MAGL) inhibition was measured using recombinant MAGL enzyme (aa 2-303 RBC, internal preparation) and the substrate 4-Nitrophenyl acetate (4NPA) (Sigma-Aldrich, N8130). Hydrolysis of the substrate in the presence of the enzyme was measured by absorbance at 405 nm. 10 μL of assay buffer (10 mM Tris pH 7.5, 1 mM EDTA, 0.9% DMSO) was added to a black 384-well non-binding plate with clear bottom (Greiner, 781906) for each reaction. […] DMSO control wells were included for reference. A 10.8 nM (1.8×) MAGL mix in assay buffer was prepared, with 25 μL added to each reaction well, for a final assay concentration of 6 nM. No enzyme wells received 25 μL of buffer. Plate was incubated at room temperature for 30 minutes. 35 mM solution of 4NPA in methanol was prepared daily. A 4.5×4NPA substrate solution was prepared in assay buffer and 10 μL was added to each reaction well, for a final assay concentration of 0.25 mM. Plate was spun for 1 minute at 1000 rpm before measuring absorbance using a CLARIOstar plate reader (BMG Labtech). A kinetic reading at 405 nm was done every minute for 30 minutes. Data was analyzed using the linear slope of the reaction progress curve and the average of the no-enzyme wells (background) was subtracted from the data. The background-subtracted slope data was converted to % activity using the average of wells with enzyme and DMSO vehicle. IC50s were calculated using GraphPad software (Sigmoidal dose response, variable slope equation). […] Table 8 provides potency measurements of MAGL inhibition measured using the Potency Assay of Example 22 above, with the following modifications described in Table C. [table]

[1] abbreviates: Method 2: Cayman Chemical MAGL enzyme, 10 nM, read-out: MAGL Potency (Detection Method).
The mark [2] stands for this setting: Method 2: Cayman Chemical MAGL enzyme, 10 nM, read-out: Potency (MAGL inhibition).

Like-named read-outs stand apart in the source and are kept apart here.

Chain of Monoacylglycerol Lipase (MAGL) (Q99685 2-303): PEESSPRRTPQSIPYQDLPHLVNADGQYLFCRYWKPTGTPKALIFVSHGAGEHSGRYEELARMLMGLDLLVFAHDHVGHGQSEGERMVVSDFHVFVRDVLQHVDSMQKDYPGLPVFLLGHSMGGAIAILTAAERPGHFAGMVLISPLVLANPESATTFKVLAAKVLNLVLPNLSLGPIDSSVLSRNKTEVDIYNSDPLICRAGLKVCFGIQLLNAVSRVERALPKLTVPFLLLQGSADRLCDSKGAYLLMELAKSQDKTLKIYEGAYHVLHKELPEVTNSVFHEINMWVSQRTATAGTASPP

For `Cc1cnn(C2CC3(C2)CN(C(=O)c2cc(O)ccc2F)C3)c1-c1ccccc1C(F)(F)F` (atropisomer, axis not shown; (M)) [Compound 410, 4-fluoro-3-{6-[(4M)-4-methyl-5-[2-(trifluoromethyl)phenyl]-1H-pyrazol-1-yl]-2-azaspiro[3.3]heptane-2-carbonyl}phenol], for the setting “Method 6: Reaction Biology MAGL enzyme, 6 nM, read-out: MAGL Potency (Detection Method)”, the IC50 lay within 0.05 to 0.15 µM.
For the molecule `Cc1cc(C2=CC3(C2)CN(C(=O)c2cc(O)ccc2F)C3)n(-c2ccccc2C)n1` [Compound 120, (2-fluoro-5-hydroxyphenyl)(6-(3-methyl-1-(o-tolyl)-1H-pyrazol-5-yl)-2-azaspiro[3.3]hept-5-en-2-yl)methanone], the IC50 under setting [1] lay in the range of 0.15 to 0.5 µM.
For the molecule `Cc1cc(C2CC3(C2)CN(C(=O)c2cc(O)c(F)cc2F)C3)n(-c2ccccc2C)n1` [Compound 126, (2,4-difluoro-5-hydroxyphenyl)(6-(3-methyl-1-(o-tolyl)-1H-pyrazol-5-yl)-2-azaspiro[3.3]heptan-2-yl)methanone], the IC50 (Methods 1, 2, 3, read-out: MAGL Potency (Detection Method)) is below 0.05 µM.
Consider `Cc1cc(C2CC3(C2)CN(C(=O)c2cc(O)ccc2C#N)C3)n(-c2ccccc2C)n1` [Compound 128, 4-hydroxy-2-({6-[3-methyl-1-(o-tolyl)-5-pyrazolyl]-2-aza-2-spiro[3.3]heptyl}carbonyl)benzonitrile], for which the IC50 (Methods 1, 2, read-out: MAGL Potency (Detection Method)) is below 0.05 µM.
In the case of `Cc1cc(C2CC3(C2)CN(C(=O)c2cc(O)ccc2Cl)C3)n(-c2ccccc2C)n1` [Compound 140, (2-chloro-5-hydroxyphenyl) (6-(3-methyl-1-(o-tolyl)-1H-pyrazol-5-yl)-2-azaspiro [3.3]heptan-2-yl) methanone], the IC50 under setting [1] was in the range of 0.05 to 0.15 µM.
As for `Cc1cc(C2CC3(C2)CN(C(=O)c2ccc(F)c(O)c2)C3)n(-c2ccccc2C)n1` [Compound 141, (4-fluoro-3-hydroxyphenyl)(6-(3-methyl-1-(o-tolyl)-1H-pyrazol-5-yl)-2-azaspiro[3.3]heptan-2-yl)methanone], the IC50 is, setting by setting: (Method 1: Reaction Biology MAGL enzyme, 6 nM, read-out: MAGL Potency (Detection Method)) 0.05 to 0.15 µM; under setting [1], 0.15 to 0.5 µM.
As to `COc1cc(F)ccc1C(=O)N1CC2(CC(c3cc(C)nn3-c3ccccc3C)C2)C1` [Compound 142, (4-fluoro-2-methoxyphenyl)(6-(3-methyl-1-(o-tolyl)-1H-pyrazol-5-yl)-2-azaspiro[3.3]heptan-2-yl)methanone], under setting [1], the IC50 lay within 0.5 to 1 µM.
The same measure, in the same setting: the result for `COc1ccccc1C(=O)N1CC2(CC(c3cc(C)nn3-c3ccccc3C)C2)C1` [Compound 143, (2-methoxyphenyl)(6-(3-methyl-1-(o-tolyl)-1H-pyrazol-5-yl)-2-azaspiro[3.3]heptan-2-yl)methanone] reads 1 to 5.1 µM.
As to `Cc1cc(C2CC3(C2)CN(C(=N)c2cc(O)ccc2F)C3)n(-c2ccccc2C)n1` [Compound 144], under setting [2], the IC50 was above 10 µM.
For the molecule `CCOc1ccccc1C(=O)N1CC2(CC(c3cc(C)nn3-c3ccccc3C)C2)C1` [Compound 145, (2-ethoxyphenyl)(6-(3-methyl-1-(o-tolyl)-1H-pyrazol-5-yl)-2-azaspiro[3.3]heptan-2-yl)methanone], the IC50 under setting [1] lay within 1 to 5.1 µM.
For `CCOc1cc(F)ccc1C(=O)N1CC2(CC(c3cc(C)nn3-c3ccccc3C)C2)C1` [Compound 146, (2-ethoxy-4-fluorophenyl){6-[3-methyl-1-(o-tolyl)-5-pyrazolyl]-2-aza-2-spiro[3.3]heptyl}methanone], the IC50 runs as follows: under setting [1], 0.15 to 0.5 µM; (Method 3: Reaction Biology MAGL enzyme, 10 nM, read-out: MAGL Potency (Detection Method)) below 0.05 µM.
Consider `COc1cc(F)ccc1CN1CC2(CC(c3cc(C)nn3-c3ccccc3C)C2)C1` [Compound 149], for which the IC50 under setting [2] was above 10 µM.
For `Cc1cc(C2CC3(C2)CN(Cc2cc(O)ccc2F)C3)n(-c2ccccc2C)n1` [Compound 150], under “read-out: Potency (MAGL inhibition)”, the IC50 was above 10 µM.
As to `Cc1cc(C2CC3(C2)CN(C2CCOc4ccccc42)C3)n(-c2ccccc2C)n1` (stereo not shown) [Compound 152], under setting [2], the IC50 is above 10 µM.
Turning to `Cc1cc(C2CC3(C2)CN([C@@H]2CCOc4ccccc42)C3)n(-c2ccccc2C)n1` [Compound 153], under setting [2], the IC50 is above 10 µM.
Same read-out and setting: the result for `Cc1cc(C2CC3(C2)CN([C@H]2COc4ccccc42)C3)n(-c2ccccc2C)n1` [Compound 154] reads above 10 µM.
On the same count and under the same terms, to `Cc1cc(C2CC3(C2)CN([C@@H]2COc4ccccc42)C3)n(-c2ccccc2C)n1` [Compound 155] belongs above 10 µM.
